In the NIST ThermoML archive (doi:10.1021/je1001945):
Numbers after ± are expanded uncertainties.

Details: Crystal; visual observation

Normal melting temperature: 215 ± 1 °C
Structure (SMILES): c1ccc2cc3ccccc3cc2c1 [anthracene]
